Some test systems named below: Candida krusei ATCC 6258; Pseudomonas aeruginosa; Escherichia coli ESBL; Staphylococcus aureus MR; Candida albicans MDM8; Aspergillus flavus; Aspergillus niger A296; Escherichia coli 1005; Staphylococcus aureus; Escherichia coli; Klebsiella pneumoniae; Candida albicans; Streptococcus pneumoniae.
Common to all, as to assay: ≥ marks a high value that may be exact or a test limit, other limits are often not marked, values filed in µg/mL are converted to µM
Test [1] relates to Candida albicans ATCC 14053.
Test [2] concerns Escherichia coli ATCC 43827.
Test [3] has as its system Staphylococcus aureus ATCC 29213.
The subject of test [4] is Candida tropicalis ATCC 750.
Test [5] concerns Pseudomonas aeruginosa ATCC 27853.
The subject of test [6] is Klebsiella pneumoniae ATCC 700603.
The subject of test [7] is Staphylococcus epidermidis ATCC 12228.
Test [8] has as its system Escherichia coli ATCC 25922.
For test [9], the system named is Candida parapsilosis ATCC 22019.
Test [10] has as its system Candida glabrata ATCC 2001.
Test [11] relates to Cronobacter sakazakii ATCC 29544.
Test [12] deals with Bacillus subtilis ATCC 23857.
Test [13] relates to Salmonella typhimurium CMCC 50013.
Test [14] has as its system Bacillus subtilis KCTC 3068.
Test [15] relates to Candida tropicalis IOC 4560.
Test [16] relates to Candida parapsilosis IOC 4564.
The test system of test [17] is Aspergillus fumigatus NCPF 2109.
Test [18] has as its system Cryptococcus neoformans var. grubii H99.
The subject of test [19] is Saccharomyces cerevisiae ATCC 2601.
Test [20] has as its system Streptococcus iniae KCTC 3657.
For test [21], the system named is Bacillus cereus ATCC 10876.
In test [22] the test system is Salmonella enterica subsp. enterica serovar Typhimurium ATCC 14028.
In test [23] the test system is Staphylococcus aureus ATCC 43300.
Test [24] concerns Candida krusei CGMCC 2.1857.
The test system of test [25] is Pseudomonas aeruginosa PAO1.
Test [26] relates to Candida parapsilosis CGMCC 2.3989.
Test [27] concerns Salmonella enterica subsp. enterica serovar Pullorum ATCC 7913.
The test system of test [28] is Candida tropicalis CGMCC 2.1975.
Test [29] deals with Staphylococcus aureus ATCC 25923.

Each structure is given as a SMILES string. Converted amounts (≈) assume the structure as drawn. “And” between values parts separate entries of the source, which are not always exact repeats. Identical values can stand only once.

On to `CC(C)C[C@H](NC(=O)[C@H](Cc1cnc[nH]1)NC(=O)[C@H](CC(C)C)NC(=O)[C@H](CO)NC(=O)[C@H](CC(C)C)NC(=O)[C@H](CCCCN)NC(=O)[C@H](Cc1ccccc1)NC(=O)[C@@H]1CCCN1)C(N)=O` [PFKLSLHL], for which the MIC (commonly the lowest concentration that inhibits growth of the organism) was no less than 63.9 µM in test [1]; 31.4 µM (≈ 30 µg/mL) in the test on Candida krusei ATCC 6258; no less than 32 µM in test [2]; 128 µM (≈ 122 µg/mL) in test [3]; 32 µM (≈ 30.5 µg/mL) in the test with Pseudomonas aeruginosa; 15.7 µM (≈ 15 µg/mL) in test [4]. Besides, the MIC was 32 µM (≈ 30.5 µg/mL) in test [5]; 64 µM (≈ 61 µg/mL) in test [6]; 64 µM (≈ 61 µg/mL) in test [7]; no less than 32 µM against Escherichia coli ESBL; 32 µM (≈ 30.5 µg/mL) in test [8]; no less than 63.9 µM in [9]. The MIC in [10] was 31.4 µM (≈ 30 µg/mL); in the test with Staphylococcus aureus MR, no less than 128 µM; in test [11], no less than 64 µM; in test [12] it was no less than 32 µM.
Take `CC[C@H](C)[C@H](NC(=O)[C@@H](N)CO)C(=O)N[C@@H](CO)C(=O)N[C@@H](CC(C)C)C(=O)N[C@@H](CC(C)C)C(=O)O` [SISLL]: the MIC in test [3] is 158 µM (≈ 83.9 µg/mL); in test [13] it was no less than 186 µM; in test [8] it was 172 µM (≈ 91.4 µg/mL); in [14], no less than 133 µM.
Take `CC(C)C[C@H](NC(=O)[C@H](CC(C)C)NC(=O)[C@H](CCCCN)NC(=O)[C@@H](N)Cc1ccccc1)C(=O)N[C@@H](CO)C(=O)N[C@@H](Cc1cnc[nH]1)C(=O)N[C@@H](CO)C(=O)N[C@@H](CC(C)C)C(=O)N[C@@H](CC(C)C)C(=O)N[C@H](C(=O)N[C@H](C(=O)N[C@@H](CC(C)C)C(=O)N[C@@H](C)C(=O)N[C@@H](CO)C(=O)N[C@@H](Cc1cnc[nH]1)C(=O)N[C@@H](CC(C)C)C(=O)N1CCC[C@H]1C(=O)O)[C@@H](C)O)C(C)C` [FKLLSHSLLVTLASHLP]: the MIC against Candida albicans MDM8 was 2.1 µM (≈ 3.94 µg/mL); in test [15], 2.1 µM (≈ 3.94 µg/mL); in test [16] it was 12.5 µM (≈ 23.5 µg/mL); against Aspergillus flavus, no less than 50 µM; in test [17] it was 6.3 µM (≈ 11.8 µg/mL); in test [18] it was 1.6 µM (≈ 3 µg/mL). Moreover, the MIC against Aspergillus niger A296 was determined as 12.5 µM (≈ 23.5 µg/mL); in [19], 3.1 µM (≈ 5.82 µg/mL).
With `CC[C@H](C)[C@H](NC(=O)[C@H](Cc1ccccc1)NC(=O)[C@@H](NC(=O)[C@H](CCCCN)NC(=O)[C@@H](NC(=O)[C@H](CCCCN)NC(=O)[C@H](CCCCN)NC(=O)[C@H](Cc1ccccc1)NC(=O)[C@@H](NC(=O)[C@H](CCCCN)NC(=O)[C@H](CCCN=C(N)N)NC(=O)[C@H](Cc1ccccc1)NC(=O)CNC(=O)[C@H](CCCCN)NC(=O)[C@H](CCCCN)NC(=O)[C@@H](NC(=O)[C@H](CCCCN)NC(=O)[C@H](CCCN=C(N)N)NC(=O)[C@H](Cc1ccccc1)NC(=O)[C@H](Cc1ccccc1)NC(=O)[C@H](CCCCN)NC(=O)[C@H](CCCCN)NC(=O)[C@H](Cc1ccccc1)NC(=O)[C@H](CCCN=C(N)N)NC(=O)[C@H](CCCCN)NC(=O)[C@@H](NC(=O)[C@@H](N)CCCN=C(N)N)C(C)C)[C@@H](C)CC)[C@@H](C)CC)[C@@H](C)O)[C@@H](C)CC)C(=O)NCC(=O)O` [RVKRFKKFFRKIKKGFRKIFKKTKIFIG], the MIC in test [20] is 8.95 µM (≈ 32 µg/mL); in test [21], 12.9 µM (≈ 46 µg/mL); in [3], greater than 35.8 µM; in test [5], 0.839 µM (≈ 3 µg/mL); in test [22] it was 0.42 µM (≈ 1.5 µg/mL); in test [8], 0.559 µM (≈ 2 µg/mL).
As to `NC(=O)[C@H](CCCN=C(N)N)NC(=O)[C@H](Cc1c[nH]c2ccccc12)NC(=O)[C@H](CCCN=C(N)N)NC(=O)[C@H](Cc1c[nH]c2ccccc12)NC(=O)[C@H](Cc1c[nH]c2ccccc12)NC(=O)[C@H](Cc1c[nH]c2ccccc12)NC(=O)[C@H](CCCN=C(N)N)NC(=O)[C@H](Cc1c[nH]c2ccccc12)NC(=O)[C@@H](N)CCCN=C(N)N` [RWRWWWRWR], the MIC against Escherichia coli 1005 turned out to be 2 µM (≈ 3.15 µg/mL); in test [3], 4 µM (≈ 6.29 µg/mL); against Pseudomonas aeruginosa, 16 µM (≈ 25.2 µg/mL); in test [23], 2 µM (≈ 3.15 µg/mL); with Staphylococcus aureus, 8 µM (≈ 12.6 µg/mL); in test [7] it was 4 µM (≈ 6.29 µg/mL). For the same compound, the MIC in test [24] was 4 µM (≈ 6.29 µg/mL); in test [25] it was 16 µM (≈ 25.2 µg/mL); in test [26], 16 µM (≈ 25.2 µg/mL); in [27] it was 2 µM (≈ 3.15 µg/mL); in test [22], 4 µM (≈ 6.29 µg/mL); against Escherichia coli it was 8 µM (≈ 12.6 µg/mL). The MIC with Klebsiella pneumoniae is 32 µM (≈ 50.3 µg/mL); in [8] it was 4 µM and > 2 µM; against Candida albicans, 2.83 µM (≈ 4.45 µg/mL); in test [28], 2 µM (≈ 3.15 µg/mL); in test [29] it was 4 µM (≈ 6.29 µg/mL); in the test with Streptococcus pneumoniae, no less than 32 µM.

The record behind these values is DBAASP.
